# According to patent US20250051344A1, “BIFUNCTIONAL SELECTIVE DEGRADERS OF SMARCA2 AND THERAPEUTIC USES THEREOF” (Nurix Therapeutics, Inc., priority 2023, published 2025):
# Tests used:
# SMARCA2 = molecular target: T1, SMARCA2 (Homo sapiens, UniProt P51531); assay: SMARCA2 Cellular Degradation Assay (Western blot analysis on Jess platform); type: cell-based; conditions: for DC50 / Dmax: cellular degradation; for Fold Selectivity SMARCA4/2: ratio DC50 SMARCA4 / DC50 SMARCA2
# T1 construct: endogenous in cells
# T1 sequence (P51531 whole entry, species assumed): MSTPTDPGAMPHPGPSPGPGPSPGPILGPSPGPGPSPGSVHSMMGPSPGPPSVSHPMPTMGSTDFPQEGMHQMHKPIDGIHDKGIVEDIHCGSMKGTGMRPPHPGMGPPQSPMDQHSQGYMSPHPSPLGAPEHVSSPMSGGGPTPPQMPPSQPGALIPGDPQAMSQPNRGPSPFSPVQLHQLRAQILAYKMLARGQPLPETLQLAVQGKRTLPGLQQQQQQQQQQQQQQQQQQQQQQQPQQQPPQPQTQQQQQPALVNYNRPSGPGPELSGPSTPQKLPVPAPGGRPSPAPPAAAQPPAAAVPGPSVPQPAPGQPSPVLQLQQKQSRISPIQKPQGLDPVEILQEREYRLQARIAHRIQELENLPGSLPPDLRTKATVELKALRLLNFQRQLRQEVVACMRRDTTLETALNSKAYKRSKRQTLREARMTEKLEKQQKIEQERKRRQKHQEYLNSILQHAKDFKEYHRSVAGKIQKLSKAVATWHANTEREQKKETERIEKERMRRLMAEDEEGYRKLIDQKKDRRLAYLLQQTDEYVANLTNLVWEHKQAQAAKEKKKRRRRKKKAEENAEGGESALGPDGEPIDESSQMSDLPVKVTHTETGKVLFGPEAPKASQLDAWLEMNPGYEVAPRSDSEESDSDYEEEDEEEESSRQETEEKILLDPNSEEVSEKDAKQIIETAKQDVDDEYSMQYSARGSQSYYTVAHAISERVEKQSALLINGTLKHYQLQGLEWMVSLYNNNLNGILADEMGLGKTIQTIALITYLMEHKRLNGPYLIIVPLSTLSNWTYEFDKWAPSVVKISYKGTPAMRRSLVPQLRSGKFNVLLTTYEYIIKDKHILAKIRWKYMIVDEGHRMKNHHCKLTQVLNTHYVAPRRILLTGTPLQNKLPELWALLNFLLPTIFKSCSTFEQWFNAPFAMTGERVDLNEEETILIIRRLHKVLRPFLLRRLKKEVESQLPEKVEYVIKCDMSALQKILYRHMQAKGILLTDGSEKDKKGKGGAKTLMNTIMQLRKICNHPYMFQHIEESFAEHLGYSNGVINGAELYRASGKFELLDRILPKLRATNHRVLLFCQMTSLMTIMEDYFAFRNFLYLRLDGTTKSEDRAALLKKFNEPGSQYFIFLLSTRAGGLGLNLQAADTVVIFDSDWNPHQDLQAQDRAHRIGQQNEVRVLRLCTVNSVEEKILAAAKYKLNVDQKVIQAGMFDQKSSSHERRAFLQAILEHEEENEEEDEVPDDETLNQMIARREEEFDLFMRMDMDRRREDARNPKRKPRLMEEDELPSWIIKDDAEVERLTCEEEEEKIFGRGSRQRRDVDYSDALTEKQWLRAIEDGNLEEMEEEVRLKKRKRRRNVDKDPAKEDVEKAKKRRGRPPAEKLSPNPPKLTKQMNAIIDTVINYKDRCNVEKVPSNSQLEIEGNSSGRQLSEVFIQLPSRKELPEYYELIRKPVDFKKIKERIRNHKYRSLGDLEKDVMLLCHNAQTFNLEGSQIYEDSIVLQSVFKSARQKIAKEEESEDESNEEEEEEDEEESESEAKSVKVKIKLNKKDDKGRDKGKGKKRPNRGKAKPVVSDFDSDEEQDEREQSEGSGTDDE
# Outline: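 Tumor-derived cell pellets (5×10E5-1×10E6 live cells) lysed in RIPA + 0.2% SDS, phosphatase/protease inhibitors, benzonase; 5 μg protein/capillary on Jess; chemiluminescence/fluorescence immunoassay; SMARCA2/actin peak area, % of vehicle.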
# SMARCA4 = molecular target: T2, SMARCA4 (Homo sapiens, UniProt P51532); assay: Cellular degradation assay, SMARCA4 (Table 1); type: cell-based
# T2 construct: endogenous in cells
# T2 sequence (P51532 whole entry, species assumed): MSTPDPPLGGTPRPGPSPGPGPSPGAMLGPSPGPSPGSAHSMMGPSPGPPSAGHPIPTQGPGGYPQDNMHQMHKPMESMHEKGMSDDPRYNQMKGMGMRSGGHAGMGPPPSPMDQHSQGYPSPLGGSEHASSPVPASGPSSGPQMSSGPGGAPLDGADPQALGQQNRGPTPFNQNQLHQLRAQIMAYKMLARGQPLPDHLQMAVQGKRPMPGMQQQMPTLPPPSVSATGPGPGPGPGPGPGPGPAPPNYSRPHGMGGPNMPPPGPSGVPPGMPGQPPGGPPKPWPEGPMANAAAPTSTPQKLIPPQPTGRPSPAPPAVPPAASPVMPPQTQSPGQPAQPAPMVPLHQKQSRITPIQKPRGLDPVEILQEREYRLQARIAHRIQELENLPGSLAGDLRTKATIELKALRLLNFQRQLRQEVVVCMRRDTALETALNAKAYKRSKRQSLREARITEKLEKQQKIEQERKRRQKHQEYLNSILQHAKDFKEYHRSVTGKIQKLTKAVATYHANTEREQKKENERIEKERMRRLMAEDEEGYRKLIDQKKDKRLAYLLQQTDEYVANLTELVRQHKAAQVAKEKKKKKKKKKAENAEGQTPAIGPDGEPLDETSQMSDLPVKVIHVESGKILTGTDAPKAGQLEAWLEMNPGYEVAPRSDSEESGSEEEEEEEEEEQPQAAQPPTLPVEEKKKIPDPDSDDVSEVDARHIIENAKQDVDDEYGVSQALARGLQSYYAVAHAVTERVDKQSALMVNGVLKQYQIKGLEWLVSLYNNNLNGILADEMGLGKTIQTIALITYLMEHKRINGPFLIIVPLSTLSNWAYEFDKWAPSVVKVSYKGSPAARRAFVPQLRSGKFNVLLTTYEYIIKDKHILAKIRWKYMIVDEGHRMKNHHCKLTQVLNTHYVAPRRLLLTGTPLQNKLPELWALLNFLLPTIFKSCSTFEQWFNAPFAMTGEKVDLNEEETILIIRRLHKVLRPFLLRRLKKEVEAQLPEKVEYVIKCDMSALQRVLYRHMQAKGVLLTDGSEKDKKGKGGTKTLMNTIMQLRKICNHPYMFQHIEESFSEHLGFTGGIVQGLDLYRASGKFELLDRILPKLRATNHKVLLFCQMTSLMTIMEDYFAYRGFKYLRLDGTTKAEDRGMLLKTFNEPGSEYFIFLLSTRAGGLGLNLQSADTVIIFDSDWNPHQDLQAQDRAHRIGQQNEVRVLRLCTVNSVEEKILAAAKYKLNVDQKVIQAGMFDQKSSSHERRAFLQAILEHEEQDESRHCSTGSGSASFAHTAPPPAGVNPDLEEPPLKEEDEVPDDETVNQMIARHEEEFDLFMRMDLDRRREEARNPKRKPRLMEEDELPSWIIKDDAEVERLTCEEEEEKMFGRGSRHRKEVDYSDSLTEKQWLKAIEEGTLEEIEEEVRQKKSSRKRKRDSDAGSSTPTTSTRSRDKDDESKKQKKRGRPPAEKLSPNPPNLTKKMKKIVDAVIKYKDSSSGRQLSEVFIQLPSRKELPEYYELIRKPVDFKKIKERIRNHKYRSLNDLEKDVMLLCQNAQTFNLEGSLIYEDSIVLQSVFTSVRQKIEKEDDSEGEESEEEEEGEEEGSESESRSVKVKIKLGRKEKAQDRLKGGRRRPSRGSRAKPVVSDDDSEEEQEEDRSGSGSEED
Structure (SMILES),DC50 (SMARCA2),Dmax (SMARCA2),Fold Selectivity SMARCA4/2 (SMARCA2),Dmax (SMARCA4),DC50 (SMARCA4)
"CN(C(=O)C1(OC2CC2)CCN(c2cnnc(-c3ccccc3O)c2)CC1)C1CCN(CCC2CCN(c3ccc([C@H]4CCC(=O)NC4=O)c(F)c3)CC2)CC1 (racemic) [Example 70, rac-(r)-4-cyclopropoxy-n-(1-(2-(1-(4-(2,6-dioxopiperidin-3-yl)-3-fluorophenyl)piperidin-4-yl)ethyl)piperidin-4-yl)-1-(6-(2-hydroxyphenyl)pyridazin-4-yl)-n-methylpiperidine-4-carboxamide]",8.6 nM,81.4%,1163,35.1%,
"Cn1c(=O)n([C@H]2CCC(=O)NC2=O)c2cccc(N3CCC(C(=O)N4C[C@@H]5[C@H](C4)[C@H]5C(=O)NCC4(c5ccccc5)CCN(c5cnnc(-c6ccccc6O)c5)CC4)CC3)c21 (racemic) [Example 72, (1r,5s,6r)-3-(1-(1-((rs)-2,6-dioxopiperidin-3-yl)-3-methyl-2-oxo-2,3-dihydro-1h-benzo[d]imidazol-4-yl)piperidine-4-carbonyl)-n-((1-(6-(2-hydroxyphenyl)pyridazin-4-yl)-4-phenylpiperidin-4-yl)methyl)-3-azabicyclo[3.1.0]hexane-6-carboxamide]",0.61 nM,95.8%,42,75.4%,25.9 nM
"O=C1CC[C@@H](c2ccc(C3CCN(CC(=O)N4C[C@@H]5[C@H](C4)[C@H]5C(=O)NCC4(c5ccccc5)CCN(c5cnnc(-c6ccccc6O)c5)CC4)CC3)cc2)C(=O)N1 (racemic) [Example 73, (1R,5S,6S)-3-[2-(4-{4-[(3RS)-2,6-dioxopiperidin-3-yl]phenyl}piperidin-1-yl)acetyl]-N-({1-[6-(2-hydroxyphenyl)pyridazin-4-yl]-4-phenylpiperidin-4-yl}methyl)-3-azabicyclo[3.1.0]hexane-6-carboxamide]",11 nM,79.8%,910,21%,
"C[C@H]1C[C@H](NC(=O)C2(c3ccccc3)CCN(c3cnnc(-c4ccccc4O)c3)CC2)CCN1C(=O)CN1CCC(c2ccc([C@H]3CCC(=O)NC3=O)cc2)CC1 (racemic) [Example 76, n-((2s,4r)-1-(2-(4-(4-((rs)-2,6-dioxopiperidin-3-yl)phenyl)piperidin-1-yl)acetyl)-2-methylpiperidin-4-yl)-1-(6-(2-hydroxyphenyl)pyridazin-4-yl)-4-phenylpiperidine-4-carboxamide]",9.53 nM,83.5%,1049,24.7%,
"CC(C)c1cc(C2(C(=O)N3CC4(CN(CCC5CCN(c6ccc(C7CCC(=O)NC7=O)cc6)CC5)C4)C3)CCN(c3cnnc(-c4ccccc4O)c3)CC2)no1 (racemic) [Example 79, rac-(3R)-3-(4-{4-[2-(6-{1-[6-(2-hydroxyphenyl)pyridazin-4-yl]-4-[5-(propan-2-yl)-1,2-oxazol-3-yl]piperidine-4-carbonyl}-2,6-diazaspiro[3.3]heptan-2-yl)ethyl]piperidin-1-yl}phenyl)piperidine-2,6-dione]",12.4 nM,70.7%,806,21.9%,
"O=C1CCC(c2ccc(N3CCC(CCN4CC5(C4)CN(C(=O)C4(c6cc7ccccn7n6)CCN(c6cnnc(-c7ccccc7O)c6)CC4)C5)CC3)cc2)C(=O)N1 (racemic) [Example 80, rac-(3R)-3-(4-{4-[2-(6-{1-[6-(2-hydroxyphenyl)pyridazin-4-yl]-4-{pyrazolo[1,5-a]pyridin-2-yl}piperidine-4-carbonyl}-2,6-diazaspiro[3.3]heptan-2-yl)ethyl]piperidin-1-yl}phenyl)piperidine-2,6-dione]",14.2 nM,60%,705,21.9%,
"COC1(C(=O)N2CC3(CN(CCC4CCN(c5ccc(C6CCC(=O)NC6=O)cc5)CC4)C3)C2)CCN(c2cnnc(-c3ccccc3O)c2)CC1 (racemic) [Example 82, rac-3-(4-(4-(2-(6-(1-(6-(2-hydroxyphenyl)pyridazin-4-yl)-4-methoxypiperidine-4-carbonyl)-2,6-diazaspiro[3.3]heptan-2-yl)ethyl)piperidin-1-yl)phenyl)piperidine-2,6-dione]",11.3 nM,71.2%,883,23.8%,
"COC1(C(=O)NCC2(c3ccccc3)CCN(c3cnnc(-c4ccccc4O)c3)CC2)CCN(CCC2CCN(c3ccc([C@H]4CCC(=O)NC4=O)cc3)CC2)CC1 (racemic) [Example 83, rac-(r)-1-(2-(1-(4-(2,6-dioxopiperidin-3-yl)phenyl)piperidin-4-yl)ethyl)-n-((1-(6-(2-hydroxyphenyl)pyridazin-4-yl)-4-phenylpiperidin-4-yl)methyl)-4-methoxypiperidine-4-carboxamide]",2.3 nM,91.8%,9,73.3%,20.2 nM
"O=C1CC[C@H](c2ccc(N3CCC(CCN4CCC(C(=O)NCC5(c6ccccc6)CCN(c6cnnc(-c7ccccc7O)c6)CC5)C5CC54)CC3)cc2)C(=O)N1 (mixture of isomers) [Example 84, rac-2-(2-(1-(4-((r)-2,6-dioxopiperidin-3-yl)phenyl)piperidin-4-yl)ethyl)-n-((1-(6-(2-hydroxyphenyl)pyridazin-4-yl)-4-phenylpiperidin-4-yl)methyl)-2-azabicyclo[4.1.0]heptane-5-carboxamide]",4.23 nM,89.5%,11,61.9%,46.5 nM
"CC1(NC(=O)C2(c3ccccc3)CCN(c3cnnc(-c4ccccc4O)c3)CC2)CCN(C(=O)CN2CCC(c3ccc(N[C@@H]4CCC(=O)NC4=O)cc3)CC2)CC1 (racemic) [Example 86, rac-(r)-n-(1-(2-(4-(4-((2,6-dioxopiperidin-3-yl)amino)phenyl)piperidin-1-yl)acetyl)-4-methylpiperidin-4-yl)-1-(6-(2-hydroxyphenyl)pyridazin-4-yl)-4-phenylpiperidine-4-carboxamide]",22.1 nM,70.5%,452,53.7%,

# Second part, the molecule after the results:
DC50 (SMARCA2),Dmax (SMARCA2),Fold Selectivity SMARCA4/2 (SMARCA2),Dmax (SMARCA4),DC50 (SMARCA4),Structure (SMILES)
8.07 nM,81.6%,1239,32.2%,,"COC1(C(=O)N(C)C2CCN(CCC3CCN(c4ccc(C5CCC(=O)NC5=O)c(F)c4)CC3)CC2)CCN(c2cnnc(-c3ccccc3O)c2)CC1 (racemic) [Example 71, rac-N-(1-(2-(1-(4-(2,6-dioxopiperidin-3-yl)-3-fluorophenyl)piperidin-4-yl)ethyl)piperidin-4-yl)-1-(6-(2-hydroxyphenyl)pyridazin-4-yl)-4-methoxy-n-methylpiperidine-4-carboxamide]"
2.18 nM,90%,4587,35.3%,,"CN(C(=O)C1(c2ccncc2)CCN(c2cnnc(-c3ccccc3O)c2)CC1)C1CCN(CCC2CCN(c3ccc(C4CCC(=O)NC4=O)c(F)c3)CC2)CC1 (racemic) [Example 75, rac-N-{1-[2-(1-{4-[(3R)-2,6-dioxopiperidin-3-yl]-3-fluorophenyl}piperidin-4-yl)ethyl]piperidin-4-yl}-1-[6-(2-hydroxyphenyl)pyridazin-4-yl]-n-methyl-4-(pyridin-4-yl)piperidine-4-carboxamide]"
4.12 nM,87%,2427,44.2%,,"CN(C(=O)C1(c2cc3ccccn3n2)CCN(c2cnnc(-c3ccccc3O)c2)CC1)C1CCN(CCC2CCN(c3ccc(C4CCC(=O)NC4=O)cc3)CC2)CC1 (racemic) [Example 77, rac-N-{1-[2-(1-{4-[(3R)-2,6-dioxopiperidin-3-yl]phenyl}piperidin-4-yl)ethyl]piperidin-4-yl}-1-[6-(2-hydroxyphenyl)pyridazin-4-yl]-N-methyl-4-{pyrazolo[1,5-a]pyridin-2-yl}piperidine-4-carboxamide]"
5.1 nM,85.8%,1961,37.4%,,"Cc1ccnn1C1(C(=O)N(C)C2CCN(CCC3CCN(c4ccc([C@H]5CCC(=O)NC5=O)cc4)CC3)CC2)CCN(c2cnnc(-c3ccccc3O)c2)CC1 (racemic) [Example 78, rac-N-{1-[2-(1-{4-[(3R)-2,6-dioxopiperidin-3-yl]phenyl}piperidin-4-yl)ethyl]piperidin-4-yl}-1-[6-(2-hydroxyphenyl)pyridazin-4-yl]-N-methyl-4-(5-methyl-1H-pyrazol-1-yl)piperidine-4-carboxamide]"
2.79 nM,87.7%,3583,22.5%,,"CN(C(=O)C1(c2ccnn2C)CCN(c2cnnc(-c3ccccc3O)c2)CC1)C1CCN(CCC2CCN(c3ccc(C4CCC(=O)NC4=O)cc3)CC2)CC1 (racemic) [Example 87, rac-N-{1-[2-(1-{4-[(3r)-2,6-dioxopiperidin-3-yl]phenyl}piperidin-4-yl)ethyl]piperidin-4-yl}-1-[6-(2-hydroxyphenyl)pyridazin-4-yl]-N-methyl-4-(1-methyl-1H-pyrazol-5-yl)piperidine-4-carboxamide]"
7.76 nM,78.4%,1289,20.2%,,"Cc1cc(C2(C(=O)N(C)C3CCN(CCC4CCN(c5ccc(C6CCC(=O)NC6=O)cc5)CC4)CC3)CCN(c3cnnc(-c4ccccc4O)c3)CC2)on1 (racemic) [Example 88, rac-N-{1-[2-(1-{4-[(3R)-2,6-dioxopiperidin-3-yl]phenyl}piperidin-4-yl)ethyl]piperidin-4-yl}-1-[6-(2-hydroxyphenyl)pyridazin-4-yl]-N-methyl-4-(3-methyl-1,2-oxazol-5-yl)piperidine-4-carboxamide]"
